Here are results for 27 compounds from patent publication US20230117324A1, “OXAZINE MONOACYLGLYCEROL LIPASE (MAGL) INHIBITORS” (Hoffmann-La Roche Inc., priority 2018, published 2023).

The test addresses T1, MAGL (Homo sapiens, UniProt Q99685).
T1 sequence (Q99685 1-303): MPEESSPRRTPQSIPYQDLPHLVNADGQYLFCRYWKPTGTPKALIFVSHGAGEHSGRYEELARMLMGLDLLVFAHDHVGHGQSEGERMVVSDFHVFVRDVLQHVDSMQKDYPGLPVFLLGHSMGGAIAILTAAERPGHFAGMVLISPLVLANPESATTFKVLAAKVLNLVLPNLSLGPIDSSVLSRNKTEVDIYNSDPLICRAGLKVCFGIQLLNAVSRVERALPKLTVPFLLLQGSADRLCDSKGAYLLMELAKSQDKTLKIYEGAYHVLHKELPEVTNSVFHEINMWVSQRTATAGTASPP
In words: MAGL inhibition, 2-AG assay (hydrolysis of 2-arachidonoylglycerol, arachidonic acid by mass spectrometry). Type of test: biochemical. The following applies: 2-AG assay (footnote [b]). In outline:
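Hydrolysis of 8 μM 2-arachidonoylglycerol by […] was run for 30 min at RT after a 15 min compound preincubation, in Tris/EDTA/Tween buffer. Test compounds spanned […]. The product was measured by online SPE-MS/MS (transitions 303.1→259.1 and 311.1→267.0), and activity was derived from the arachidonic acid/d8-arachidonic acid signal ratio.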
In general, IC50 refers to the concentration that gives 50% inhibition. A higher IC50 goes with weaker potency. The compound `CC(C)(OC1CN(c2ccc(C3CN(C(=O)N4CC[C@@H]5OCC(=O)N[C@@H]5C4)C3)cc2)C1)C(F)(F)F` [Example 147, (4aR,8aS)-6-(3-(4-(3-((1,1,1-Trifluoro-2-methylpropan-2-yl)oxy)azetidin-1-yl)phenyl)azetidine-1-carbonyl)hexahydro-2H-pyrido[4,3-b][1,4]oxazin-3(4H)-one] came in with an IC50 of 1 nM.
Turning to `CC(F)(F)c1ccc(C2CN(C(=O)N3CC[C@@H]4OCC(=O)N[C@@H]4C3)C2)cc1` [Example 148, (4aR,8aS)-6-(3-(4-(1,1-Difluoroethyl)phenyl)azetidine-1-carbonyl)hexahydro-2H-pyrido[4,3-b][1,4]oxazin-3(4H)-one], inhibition was half-maximal at 14 nM (IC50).
For `CC1CN(c2ccc(C3CN(C(=O)N4CC[C@@H]5OCC(=O)N[C@@H]5C4)C3)cc2)C1` [Example 151, (4aR,8aS)-6-(3-(4-(3-Methylazetidin-1-yl)phenyl)azetidine-1-carbonyl)hexahydro-2H-pyrido[4,3-b][1,4]oxazin-3(4H)-one], the concentration for half-maximal inhibition (IC50) is 5 nM.
Compound `CC1(C)CCN(c2ccc(C3CN(C(=O)N4CC[C@@H]5OCC(=O)N[C@@H]5C4)C3)cc2)C1` [Example 152, (4aR,8aS)-6-(3-(4-(3,3-Dimethylpyrrolidin-1-yl)phenyl)azetidine-1-carbonyl)hexahydro-2H-pyrido[4,3-b][1,4]oxazin-3(4H)-one] yielded a 50% inhibitory concentration (IC50) of 0.4 nM.
Turning to `O=C1CO[C@H]2CCN(C(=O)N3CC(c4ccc(N5CC(OC(F)(F)F)C5)cc4)C3)C[C@H]2N1` [Example 153, (4aR,8aS)-6-(3-(4-(3-(Trifluoromethoxy)azetidin-1-yl)phenyl)azetidine-1-carbonyl)hexahydro-2H-pyrido[4,3-b][1,4]oxazin-3(4H)-one], the IC50 was 2 nM.
As to `O=C1CO[C@H]2CCN(C(=O)N3CC(c4ccc(-c5ccc(Cl)cc5Cl)nc4)C3)C[C@H]2N1` [Example 154, (4aR,8aS)-6-(3-(6-(2,4-Dichlorophenyl)pyridin-3-yl)azetidine-1-carbonyl)hexahydro-2H-pyrido[4,3-b][1,4]oxazin-3(4H)-one], the IC50 was determined as 1 nM.
To `CS(=O)(=O)c1ccc(-c2ccc(C3CN(C(=O)N4CC[C@@H]5OCC(=O)N[C@@H]5C4)C3)cc2)c(Cl)c1` [Example 155] belongs 0.8 nM; to `O=C1CO[C@H]2CCN(C(=O)N3CC(c4ccc(N5CC(F)(F)C5)cc4)C3)C[C@H]2N1` [Example 156, (4aR,8aS)-6-(3-(4-(3,3-Difluoroazetidin-1-yl)phenyl)azetidine-1-carbonyl)hexahydro-2H-pyrido[4,3-b][1,4]oxazin-3(4H)-one], 24 nM; to `O=C1CO[C@H]2CCN(C(=O)N3CCC(c4ccc(Br)cc4)CC3)C[C@H]2N1` [Example 157, (4aR,8aS)-6-(4-(4-Bromophenyl)piperidine-1-carbonyl)hexahydro-2H-pyrido[4,3-b][1,4]oxazin-3(4H)-one], 289 nM.
The compound `O=C1CO[C@H]2CCN(C(=O)N3CC(c4ccc(OCC(F)(F)F)cc4)C3)C[C@H]2N1` [Example 158, (4aR,8aS)-6-[3-[4-(2,2,2-Trifluoroethoxy)phenyl]azetidine-1-carbonyl]-4,4a,5,7,8,8a-hexahydropyrido[4,3-b][1,4]oxazin-3-one] returned an IC50 of 7 nM. Compared with the last compound, the IC50 is about 41-fold lower.
For `N#Cc1cc(Cl)ccc1-c1ccc(C2CN(C(=O)N3CC[C@@H]4OCC(=O)N[C@@H]4C3)C2)cc1` [Example 159, 2-[4-[1-[(4aR,8aS)-3-Oxo-4,4a,5,7,8,8a-hexahydropyrido[4,3-b][1,4]oxazine-6-carbonyl]azetidin-3-yl]phenyl]-5-chloro-benzonitrile], the IC50 is 0.1 nM.
Compound `O=C1CO[C@H]2CCN(C(=O)N3CC(c4ccc(N5CCCC5C(F)(F)F)cc4)C3)C[C@H]2N1` (stereo partly drawn) [Example 162, (4aR,8aS)-6-(3-(4-(2-(Trifluoromethyl)pyrrolidin-1-yl)phenyl)azetidine-1-carbonyl)hexahydro-2H-pyrido[4,3-b][1,4]oxazin-3(4H)-one] came in with an IC50 of 0.3 nM.
`O=C1CO[C@H]2CCN(C(=O)N3CC(c4ccc(N5CCC(C(F)(F)F)C5)cc4)C3)C[C@H]2N1` (stereo partly drawn) [Example 163, (4aR,8aS)-6-(3-(4-(3-(Trifluoromethyl)pyrrolidin-1-yl)phenyl)azetidine-1-carbonyl)hexahydro-2H-pyrido[4,3-b][1,4]oxazin-3(4H)-one]: inhibition was half-maximal at 0.7 nM (IC50).
As for `O=C1CO[C@H]2CCN(C(=O)N3CCC(c4cccc(Br)c4)C3)C[C@H]2N1` (stereo partly drawn) [Example 164, (4aR,8aS)-6-(3-(3-Bromophenyl)pyrrolidine-1-carbonyl)hexahydro-2H-pyrido[4,3-b][1,4]oxazin-3(4H)-one], the IC50 is 82 nM.
Turning to `CCC1CCCN1c1ccc(C2CN(C(=O)N3CC[C@@H]4OCC(=O)N[C@@H]4C3)C2)cc1` (stereo partly drawn) [Example 165, (4aR,8aS)-6-[3-[4-(2-Ethylpyrrolidin-1-yl)phenyl]azetidine-1-carbonyl]-4,4a,5,7,8,8a-hexahydropyrido[4,3-b][1,4]oxazin-3-one], the IC50 is 0.4 nM.
Regarding `N#Cc1cccc(Cl)c1-c1ccc(C2CN(C(=O)N3CC[C@@H]4OCC(=O)N[C@@H]4C3)C2)cc1` [Example 166, 2-[4-[1-[(4aR,8aS)-3-Oxo-4,4a,5,7,8,8a-hexahydropyrido[4,3-b][1,4]oxazine-6-carbonyl]azetidin-3-yl]phenyl]-3-chloro-benzonitrile], inhibition was half-maximal at 0.1 nM (IC50).
To `O=C1CO[C@H]2CCN(C(=O)N3CC(c4ccc(N5CCCC5C5CC5)cc4)C3)C[C@H]2N1` (stereo partly drawn) [Example 167, (4aR,8aS)-6-(3-(4-(2-Cyclopropylpyrrolidin-1-yl)phenyl)azetidine-1-carbonyl)hexahydro-2H-pyrido[4,3-b][1,4]oxazin-3(4H)-one] belongs 0.2 nM; to `O=C1CO[C@H]2CCN(C(=O)N3CCN(c4ccc(Br)cc4)CC3)C[C@H]2N1` [Example 168, (4aR,8aS)-6-(4-(4-Bromophenyl)piperazine-1-carbonyl)hexahydro-2H-pyrido[4,3-b][1,4]oxazin-3(4H)-one], 3700 nM.
Compound `O=C1CO[C@H]2CCN(C(=O)N3CCC(c4ccc(-c5ccc(Cl)cc5Cl)cc4)CC3)C[C@H]2N1` [Example 169, (4aR,8aS)-6-(4-(2′,4′-Dichloro-[1,1′-biphenyl]-4-yl)piperidine-1-carbonyl)hexahydro-2H-pyrido[4,3-b][1,4]oxazin-3(4H)-one] registered a 50% inhibitory concentration (IC50) of 4 nM.
To `O=C1CO[C@H]2CCN(C(=O)N3CC(c4ccc(N5CC6CC6C5)cc4)C3)C[C@H]2N1` (stereo partly drawn) [Example 170, (4aR,8aS)-6-(3-(4-(3-Azabicyclo[3.1.0]hexan-3-yl)phenyl)azetidine-1-carbonyl)hexahydro-2H-pyrido[4,3-b][1,4]oxazin-3(4H)-one] belongs 2 nM; to `O=C1CO[C@H]2CCN(C(=O)N3CC(c4cccc(OC(F)(F)F)c4)C3)C[C@H]2N1` [Example 171, (4aR,8aS)-6-(3-(3-(Trifluoromethoxy)phenyl)azetidine-1-carbonyl)hexahydro-2H-pyrido[4,3-b][1,4]oxazin-3(4H)-one], 44 nM; to `O=C1CO[C@H]2CCN(C(=O)N3CC(c4ccc(N5CC(OCC(F)(F)F)C5)cc4)C3)C[C@H]2N1` [Example 172, (4aR,8aS)-6-(3-(4-(3-(2,2,2-Trifluoroethoxy)azetidin-1-yl)phenyl)azetidine-1-carbonyl)hexahydro-2H-pyrido[4,3-b][1,4]oxazin-3(4H)-one], 4 nM.
In turn, `CS(=O)(=O)c1cc(Cl)ccc1-c1ccc(C2CN(C(=O)N3CC[C@@H]4OCC(=O)N[C@@H]4C3)C2)cc1` [Example 173, (4aR,8aS)-6-(3-(4′-Chloro-2′-(methylsulfonyl)-[1,1′-biphenyl]-4-yl)azetidine-1-carbonyl)hexahydro-2H-pyrido[4,3-b][1,4]oxazin-3(4H)-one] came in with an IC50 of 0.4 nM. Against the preceding compound, the IC50 is about 10-fold lower.
`O=C1CO[C@H]2CCN(C(=O)N3CC(c4ccc(N5CCCC5C(F)(F)F)nc4)C3)C[C@H]2N1` (stereo partly drawn) [Example 174, (4aR,8aS)-6-(3-(6-(2-(Trifluoromethyl)pyrrolidin-1-yl)pyridin-3-yl)azetidine-1-carbonyl)hexahydro-2H-pyrido[4,3-b][1,4]oxazin-3(4H)-one] came in with an IC50 of 7 nM.
As for `O=C1CO[C@H]2CCN(C(=O)N3CC(c4ccc(N5CCC6(CC6)C5)cc4)C3)C[C@H]2N1` [Example 179, (4aR,8aS)-6-(3-(4-(5-Azaspiro[2.4]heptan-5-yl)phenyl)azetidine-1-carbonyl)hexahydro-2H-pyrido[4,3-b][1,4]oxazin-3(4H)-one], the IC50 was found to be 1 nM.
To `O=C1CO[C@H]2CCN(C(=O)N3CC(c4ccc(S(F)(F)(F)(F)F)cc4)C3)C[C@H]2N1` [Example 180, (4aR,8aS)-6-(3-(4-(Pentafluoro-16-sulfaneyl)phenyl)azetidine-1-carbonyl)hexahydro-2H-pyrido[4,3-b][1,4]oxazin-3(4H)-one] belongs 9 nM; to `O=C1CO[C@H]2CCN(C(=O)N3CC(c4ccc(Cl)cn4)C3)C[C@H]2N1` [Example 181, (4aR,8aS)-6-(3-(5-Chloropyridin-2-yl)azetidine-1-carbonyl)hexahydro-2H-pyrido[4,3-b][1,4]oxazin-3(4H)-one], 593 nM.
